Assay results published in patent publication US9322034B2, “Compositions and methods for detecting and modulating cell death by a translation regulated gene expression system” (Wayne State University, priority 2007, dated 2016).

Columns and labels:
Format in all cases: cell-based, human
[1] = system: HEK293 cell pools expressing the fLUC-TRplp-EYFP, fLUC-TRdm-EYFP, pcuLf-TRplp-EYFP or pcuLf-TRdm-EYFP expression cassettes; assay: Cytotoxicity assay by Western blot, bicistronic TR cassettes; conditions: toxic doses
HEK293 cells = assay: Trypan blue staining of HEK293 cells treated with toxic agents; conditions: 5-6.7 micromolar, within 24 hr
[2] = system: HT1080 cells transduced with rBAC-TRdm-EYFP virions; assay: Cytotoxic event assay using rBAC-TRdm-EYFP gene delivery, fluorescence microscopy; conditions: 5 μM
Protocol: HT1080 cells are plated in 6-well trays and allowed to grow until 70-80% confluent. Two sets of HT1080 cells are transduced with rBAC-TRdm-EYFP virions (multiplicity of infection of 10 pfu/cell and 25 pfu/cell) for 24 hr and then treated with medium containing 5 μM calcium ionophore A23187 for 13.5 hr and 23 hr. At this time, untreated and treated cells are processed and examined by fluorescence microscopic analysis as described above.

[3] = system: HEK293 cells transformed with the CMV-EYFP, TRplp-EYFP or TRdm-EYFP expression cassettes; assay: Cytotoxicity assay by fluorescent microscopy, EYFP fluorescent cell counts; conditions: 5 micromolar
Description: Fluorescence of single cells, tissues or cell suspensions can be detected and quantitated by several means such as visual inspection under a microscope, automated or semiautomated fluorescence imaging, flow cytometry, fluorescence spectroscopy in a fluorometer or in a microplate reader, using an appropriate filter set. For this example, visual inspection under a microscope (Nikon TE2000-S) was used to validate TR translational regulation in stressed and dying HEK293 cells expressing the TRplp-EYFP, TRdm-EYFP, TRplp-fLUC and TRdm-fLUC mRNAs.
In this study, HEK293 cells transformed with the CMV-EYFP, TRplp-EYFP or TRdm-EYFP expression cassettes are directly visualized following translation of the spontaneously fluorescent EYFP protein. One day prior to toxin addition, 200,000 cells (HEK293, HEK293 CMV-EYFP, HEK293 TRplp-EYFP or HEK293 TRdm-EYFP) are plated into a six-well tray containing a flame sterilized glass slide. […] Slides were fixed for 10 min in 4% paraformaldehyde, washed extensively with 1×PBS and mounted for fluorescence microscopy.
Fluorescent cell counts are performed on the 6 hr and 10 hr timepoints using an EYFP-selective filter set (Nikon) and are shown in FIG. 7. In untreated cell cultures, the frequency of EYFP-positive cells range from 1.5-2.5%, which is consistent with the frequency of nonviable cells in these cultures, as determined by Trypan blue staining. […]

[4] = system: HEK293 cells transduced with rBAC TRplp-EYFP / TRdm-EYFP; assay: TR-EYFP translation after rBAC transduction; conditions: 5 μM, 24 hr
Protocol: This example is to show delivery of the TRplp-EYFP and TRdm-EYFP cassettes to HEK293 cells using rBAC transduction. HEK293 cells are plated on flame sterilized glass slides and grown until 60-70% confluent (1-2 days), washed with serum-free DMEM, and infected with rBAC for 1-2 hr. The medium is replaced with DMEM, 10% FBS and the cells incubated for 24 hours. Infected cells were treated with DMEM, 10% FBS supplemented with 5 μM calcium ionophore A23187 for 24 hr prior to direct microscopic examination.

CNc1ccc2oc(C[C@H]3O[C@@]4(CC[C@H]3C)O[C@H]([C@H](C)C(=O)c3ccc[nH]3)[C@H](C)C[C@H]4C)nc2c1C(=O)O [calcium ionophore A23187]
EYFP translation in cell pools expressing the bicistronic TR cassettes (Western blot, FIG. 4) [1]: induce EYFP translation
cell death in HEK293 cells as determined by Trypan blue staining (HEK293 cells): complete cell death
increase in EYFP positive cells compared to infected but untreated cell samples ([2]; 13.5 hr, 10 pfu/cell): 3344%
increase in EYFP positive cells compared to infected but untreated cell samples ([2]; 13.5 hr, 25 pfu/cell): 4925%
decrease in the number of attached cells ([2]; 23 hr): more than 50%
increase in EYFP positive cells compared to infected but untreated cell samples ([2]; 23 hr, 10 pfu/cell): 725%
increase in EYFP positive cells compared to infected but untreated cell samples ([2]; 23 hr, 25 pfu/cell): 875%
change in the number of fluorescent cells ([3]; HEK293 or HEK CMV-EYFP cells): no significant change
frequency of fluorescent cells, rise in % of untreated control cultures ([3]; TRplp-EYFP expressing cells, 6 hr and 10 hr): 1000-2300%
translation of EYFP in rBAC transduced cells compared to uninfected control cells [4]: exhibit selective translation of the fluorescent EYFP protein
